Assay results as given in PubChem BioAssay AID316 (DTP/NCI, 2004).
Several values for one entry are separate records, joined by “and”; a condition that tells them apart may be missing. Equal values may be shown once. Inconclusive results and toxic doses are left out.

System: P1534 leukemia ip, CD2F1 mice, survival T/C
Assay: NCI In Vivo Anticancer Drug Screen. Data for tumor model P1534 Leukemia (intraperitoneal) in CD2F1 (CDF1) mice
Conditions: endpoint: mean survival time, higher = longer survival
Experimental: The antitumor activity of compounds was measured in mice bearing transplantable tumors. Survival or tumor size were measured and the results are expressed as the measurement made in the treated group (T) divided by the measurement made in the vehicle treated control group (C). The tumor model used in this assay is P1534 Leukemia (intraperitoneal) in CD2F1 (CDF1) mice

[1] = dose: 2.5 mg/kg/injection, schedule: Q01DX010 (ip), vehicle: saline
[2] = dose: 10.0 mg/kg/injection, schedule: Q01DX010 (ip), vehicle: saline
[3] = dose: 20.0 mg/kg/injection, schedule: Q01DX010 (ip), vehicle: saline
[4] = dose: 200.0 mg/kg/injection, schedule: Q01DX010 (ip), vehicle: water
[5] = dose: 300.0 mg/kg/injection, schedule: Q01DX010 (ip), vehicle: water
[6] = dose: 3.13 mg/kg/injection, schedule: Q01DX010 (ip), vehicle: saline
[7] = dose: 6.25 mg/kg/injection, schedule: Q01DX010 (ip), vehicle: saline
[8] = dose: 12.5 mg/kg/injection, schedule: Q01DX010 (ip), vehicle: saline
[9] = dose: 50.0 mg/kg/injection, schedule: Q01DX010 (ip), vehicle: saline
[10] = dose: 100.0 mg/kg/injection, schedule: Q01DX010 (ip), vehicle: saline
[11] = dose: 200.0 mg/kg/injection, schedule: Q01DX010 (ip), vehicle: saline
[12] = dose: 400.0 mg/kg/injection, schedule: Q01DX010 (ip), vehicle: saline
[13] = dose: 25.0 mg/kg/injection, schedule: Q01DX010 (ip), vehicle: saline
[14] = dose: 1.25 mg/kg/injection, schedule: Q01DX010 (ip), vehicle: saline

With `COC(=O)C1C(O)CCC2CN3CCc4c([nH]c5ccccc45)C3CC21` (centres undefined) the T/C [1] was 100 % of control, the T/C (dose: 5.0 mg/kg/injection, schedule: Q01DX010 (ip), vehicle: saline) was 100 % of control and the T/C [2] was 100 % of control. For the same molecule, the T/C [3] was 96 % of control.
`[N-]=[N+]=CC(=O)NCC(=O)NN` was tested, and the T/C (dose: 100.0 mg/kg/injection, schedule: Q01DX010 (ip), vehicle: water) was 103 % of control, the T/C [4] was 120 % of control and the T/C [5] was 123 % of control.
With `COc1ccc2cc3[n+](cc2c1OC)CCc1cc2c(cc1-3)OCO2` the T/C (dose: 1.56 mg/kg/injection, schedule: Q01DX010 (ip), vehicle: saline) was 106 % of control, the T/C [6] was 106 % of control and the T/C [7] was 110 % of control. The T/C [8] was 123 % of control.
`O=C(NO)c1ccncc1` was tested, and the T/C [4] was 101 % of control, the T/C (dose: 200.0 mg/kg/injection, schedule: Q02DX005 (ip), vehicle: water) was 106 % of control and the T/C [5] was 108 % of control. The T/C (dose: 300.0 mg/kg/injection, schedule: Q02DX005 (ip), vehicle: water) was 99 % of control, the T/C (dose: 335.0 mg/kg/injection, schedule: Q01DX010 (ip), vehicle: water) was 106 % of control and the T/C (dose: 400.0 mg/kg/injection, schedule: Q01DX010 (ip), vehicle: water) was 106 % of control. The T/C (dose: 400.0 mg/kg/injection, schedule: Q02DX005 (ip), vehicle: water) was 110 % of control, the T/C (dose: 500.0 mg/kg/injection, schedule: Q01DX010 (ip), vehicle: water) was 103 % of control and the T/C (dose: 600.0 mg/kg/injection, schedule: Q01DX010 (ip), vehicle: water) was 111 % of control. The T/C (dose: 600.0 mg/kg/injection, schedule: Q02DX005 (ip), vehicle: water) was 106 % of control and the T/C (dose: 800.0 mg/kg/injection, schedule: Q02DX005 (ip), vehicle: water) was 109 % of control.
In the case of `COc1cc2c3c(c4cc(OC)c(OC)cc4c2cc1OC)CN1CCC[C@H]1C3`, the T/C (dose: 3.9 mg/kg/injection, schedule: Q01DX010 (ip), vehicle: saline) is reported as 115 % of control and the T/C (dose: 7.8 mg/kg/injection, schedule: Q01DX010 (ip), vehicle: saline) is reported as 107 % of control.
For `CC(CCc1ccc(OC(=O)c2ccccc2)cc1)OC(=O)c1ccccc1` (centres undefined), the T/C [9] was 96 % of control, the T/C [10] was 89 % of control and the T/C [11] was 86 % of control. The T/C [12] was 89 % of control.
`CC(=O)Nc1c(Cl)cc2c(c1Cl)Cc1cc([N+](=O)[O-])ccc1-2` was tested, and the T/C (dose: 15.6 mg/kg/injection, schedule: Q01DX010 (ip), vehicle: saline) was 107 % of control, the T/C (dose: 31.3 mg/kg/injection, schedule: Q01DX010 (ip), vehicle: saline) was 107 % of control and the T/C (dose: 62.5 mg/kg/injection, schedule: Q01DX010 (ip), vehicle: saline) was 107 % of control and 100 % of control. The T/C (dose: 125.0 mg/kg/injection, schedule: Q01DX010 (ip), vehicle: saline) was 107 % of control.
In the case of `O=C(Nc1ccc(C2=NCCCN2)cc1)c1ccc(C(=O)Nc2ccc(C3=NCCCN3)cc2)cc1`, the T/C (dose: 1.0 mg/kg/injection, schedule: Q01DX010 (ip), vehicle: saline) is reported as 109 % of control, the T/C (dose: 2.0 mg/kg/injection, schedule: Q01DX010 (ip), vehicle: saline) is reported as 113 % of control and 118 % of control and the T/C (dose: 8.0 mg/kg/injection, schedule: Q01DX010 (ip), vehicle: saline) is reported as 150 % of control.
In the case of `O=C1C(=O)N(CN2CCCCC2)c2ccccc21`, the T/C [9] is reported as 100 % of control, the T/C [10] is reported as 100 % of control and the T/C [11] is reported as 96 % of control. The T/C [12] was 100 % of control.
With `CCCNc1ncnc2c1cnn2C` the T/C [6] was 100 % of control, the T/C [7] was 103 % of control and 100 % of control and the T/C [8] was 103 % of control and 107 % of control. The T/C [13] was 107 % of control and 100 % of control.
In the case of `CN1C2CCC1CC(OC(=O)C(CO)c1ccccc1)C2` (centres undefined), the T/C [13] is reported as 96 % of control and the T/C [9] is reported as 100 % of control.
`CN(CC(=O)NCCCCCCCCCCNC(=O)CN(C)C(=O)OCc1ccccc1)C(=O)OCc1ccccc1` was tested, and the T/C [9] was 96 % of control, the T/C [10] was 96 % of control and the T/C [11] was 96 % of control. The T/C [12] was 96 % of control.
`NCC(=O)NCCCCCCNCCCCCCNC(=O)CN` was tested, and the T/C [9] was 100 % of control, the T/C [10] was 100 % of control and the T/C [11] was 100 % of control. The T/C [12] was 100 % of control.
For `COc1cc2c(c(OC)c1OC)-c1ccc(OC)c(=O)cc1[C@@H](NC(C)=O)CC2`, the T/C (dose: 0.04 mg/kg/injection, schedule: Q01DX010 (ip), vehicle: saline) was 100 % of control, the T/C (dose: 0.05 mg/kg/injection, schedule: Q01DX010 (ip), vehicle: saline) was 123 % of control and the T/C (dose: 0.06 mg/kg/injection, schedule: Q01DX010 (ip), vehicle: saline) was 100 % of control. For the same molecule, the T/C (dose: 0.12 mg/kg/injection, schedule: Q01DX010 (ip), vehicle: saline) was 188 % of control, the T/C (dose: 0.18 mg/kg/injection, schedule: Q01DX010 (ip), vehicle: saline) was 213 % of control and the T/C (dose: 0.2 mg/kg/injection, schedule: Q01DX015 (ip), vehicle: saline) was 161 % of control. The T/C (dose: 0.2 mg/kg/injection, schedule: Q02DX008 (ip), vehicle: saline) was 174 % of control, the T/C (dose: 0.27 mg/kg/injection, schedule: Q01DX010 (ip), vehicle: saline) was 253 % of control and the T/C (dose: 0.3 mg/kg/injection, schedule: Q01DX015 (ip), vehicle: saline) was 212 % of control. The T/C (dose: 0.3 mg/kg/injection, schedule: Q02DX008 (ip), vehicle: saline) was 159 % of control, the T/C (dose: 0.45 mg/kg/injection, schedule: Q01DX015 (ip), vehicle: saline) was 257 % of control and the T/C (dose: 0.45 mg/kg/injection, schedule: Q02DX008 (ip), vehicle: saline) was 261 % of control. For the same molecule, the T/C (dose: 0.67 mg/kg/injection, schedule: Q02DX008 (ip), vehicle: saline) was 318 % of control, the T/C (dose: 0.9 mg/kg/injection, schedule: Q## X004 (ip), vehicle: saline) was 348 % of control and the T/C (dose: 1.0 mg/kg/injection, schedule: Q02DX008 (ip), vehicle: saline) was 304 % of control. For the same molecule, the T/C (dose: 1.0 mg/kg/injection, schedule: Q## X032 (ip), vehicle: saline) was 242 % of control, the T/C (dose: 1.1 mg/kg/injection, schedule: Q01DX001 (ip), vehicle: saline) was 255 % of control and the T/C (dose: 1.3 mg/kg/injection, schedule: Q## X004 (ip), vehicle: saline) was 328 % of control. For the same molecule, the T/C (dose: 1.6 mg/kg/injection, schedule: Q## X032 (ip), vehicle: saline) was 352 % of control, the T/C (dose: 1.7 mg/kg/injection, schedule: Q01DX001 (ip), vehicle: saline) was 208 % of control and the T/C (dose: 2.4 mg/kg/injection, schedule: Q## X032 (ip), vehicle: saline) was 240 % of control. The T/C (dose: 2.5 mg/kg/injection, schedule: Q01DX001 (ip), vehicle: saline) was 241 % of control.
With `CC1CCC2C(C)C3C(CC4C5CC=C6CC(OC7OC(CO)C(O)C(OC8OC(CO)C(O)C(O)C8O)C7OC7OC(C)C(O)C(O)C7O)CCC6(C)C5CCC43C)N2C1` (centres undefined) the T/C [9] was 96 % of control, the T/C [10] was 100 % of control and the T/C [11] was 96 % of control. The T/C [12] was 92 % of control.
In the case of `COc1ccc(Cc2nccc3cc(OC)c(OC)cc23)cc1OC`, the T/C [2] is reported as 100 % of control, the T/C [3] is reported as 100 % of control and the T/C (dose: 40.0 mg/kg/injection, schedule: Q01DX010 (ip), vehicle: saline) is reported as 100 % of control. For the same molecule, the T/C (dose: 80.0 mg/kg/injection, schedule: Q01DX010 (ip), vehicle: saline) was 100 % of control.
In the case of `Nc1nc(=S)c2ncn(C3OC(CO)C(O)C3O)c2[nH]1` (centres undefined), the T/C (dose: 0.31 mg/kg/injection, schedule: Q01DX010 (ip), vehicle: saline) is reported as 103 % of control, the T/C (dose: 0.63 mg/kg/injection, schedule: Q01DX010 (ip), vehicle: saline) is reported as 103 % of control and the T/C [14] is reported as 106 % of control.
In the case of `CC[n+]1c(-c2ccccc2)c2cc(N)ccc2c2ccc(N)cc21`, the T/C [14] is reported as 117 % of control, the T/C [1] is reported as 117 % of control and the T/C [2] is reported as 150 % of control.
With `O=P1(N(CCCl)CCCl)NCCCO1` (centres undefined) the T/C (dose: 2.9 mg/kg/injection, schedule: Q01DX010 (ip), vehicle: saline) was 98 % of control, the T/C (dose: 5.7 mg/kg/injection, schedule: Q01DX010 (ip), vehicle: saline) was 106 % of control and the T/C (dose: 11.3 mg/kg/injection, schedule: Q01DX010 (ip), vehicle: saline) was 111 % of control.
With `COc1cc(-c2ccc(Nc3ccccc3C(=O)O)c(OC)c2)ccc1Nc1ccccc1C(=O)O` the T/C [8] was 107 % of control, the T/C [13] was 114 % of control and 117 % of control and the T/C [9] was 117 % of control.
`CC(O)CCc1ccc(O)cc1` (centres undefined) was tested, and the T/C (dose: 18.8 mg/kg/injection, schedule: Q01DX010 (ip), vehicle: saline) was 100 % of control, the T/C (dose: 37.5 mg/kg/injection, schedule: Q01DX010 (ip), vehicle: saline) was 92 % of control and the T/C (dose: 75.0 mg/kg/injection, schedule: Q01DX010 (ip), vehicle: saline) was 92 % of control. For the same molecule, the T/C (dose: 150.0 mg/kg/injection, schedule: Q01DX010 (ip), vehicle: saline) was 100 % of control.
